Measurements reported in US10946019B2, “Nurr1:RXR activating compounds for simultaneous treatment of symptoms and pathology of Parkinson's disease” (priority 2015, dated 2021).
Entries after “also recorded” stand apart in the source; their conditions may differ.

How the values were obtained:
[1] = molecular target: Nurr1GAL4:RXRαVP16 heterodimer chimeras (Homo sapiens (Human), UniProt P19793); experiment: GAL4/VP16 chimera specificity luciferase assay in SHSY-5Y; type: cell-based; details: GAL4-responsive luciferase reporter
Procedure: (§1) Compound 3 specifically activates Nurr1:RXRα heterodimers over other RXR-containing transcription co-activator complexes. Specificity assays fusing DNA sequences of the gal4 DNA binding domain to the nuclear receptor Ligand-Binding-Domain (LDB) and to vp16 were performed as follows: Human SHSY-5Y cells were cotransfected with 20 ng of MH100-tk -luciferase, 10 ng of CMX-bgal, 20 ng of CMX-GAL4-RXRα-LBD and 20 ng of CMX-VP16-NR-LBD, where NR stands for either Nurr1, VDR, PPARγ. CMX-VP16-VDR-LBD and CMX-VP16-PPARγ-LBD were kindly provided by Dr Makishima ([…]). CMX-VP16-Nurr1-LBD was produced by cloning the Nurr1 LBD in the CMX-VP16 vector using KpnI. More specifically, Nurr1-LBD was isolated by PCR from a vector containing the Nurr1 cDNA using a set of primers flanking the Nurr1 LBD sequence and carrying at both sides the KpnI restriction sites, namely Nurr1 Forward […] (SEQ ID NO: 1) and Nurr1 Reverse […] (SEQ ID NO: 2). To exclude the possibility that compound 3 might transactivate RXRγ:Nurr1 heterodimers, CMX-GAL4-RXRγ-LBD was constructed by cloning the RXRγ LBD that was isolated by PCR from a vector containing the RXRγ cDNA (RIKEN, Tokyo, Japan) using the following Forward and Reverse primers carrying KpnI and NheI restriction sites, respectively, namely RXRγ Forward […] (SEQ ID NO: 3) and RXRγ LBD Reverse […] (SEQ ID NO: 4). 17 hours after transfection the compound was added to the medium at the corresponding concentrations and left for another 12 hours. Then the cells were assayed for luciferase activity normalized to galactosidase activity.
(§2) To test off-target effects of compound 3 on complexes aside from Nurr1:RXRα heterodimers, we fused the ligand binding domains of Nurr1, RXRα and a variety of related nuclear receptors to GAL4 DNA-binding domain to create chimeric proteins, while the ligand-binding domain of RXRα was also fused with VP16. These molecular chimeras were co-transfected in pairs with the RXRα:VP16 along with a GAL4-responsive luciferase reporter in SHSY-5Y, which were stimulated with compound 3. […] The above experiments indicate the high degree of selectivity of compound 3 and point to its neuroprotective potential.

[2] = molecular target: RXRαGAL4 homodimer chimeras (Homo sapiens (Human), UniProt P19793); experiment: as above; type: cell-based; details: GAL4-responsive luciferase reporter
Procedure: as §1, §2

[3] = molecular target: RXRαVP16 heterodimer chimeras with RXRγGAL4 (Homo sapiens (Human), UniProt P19793); experiment: as above; type: cell-based; details: GAL4-responsive luciferase reporter
Procedure: as §1, §2

[4] = molecular target: RXRαVP16 heterodimer chimeras with PPARγGAL4 (Homo sapiens (Human), UniProt P19793); experiment: as above; type: cell-based; details: GAL4-responsive luciferase reporter
Procedure: as §1, §2

[5] = tested on: human midbrain-specific iPSc-derived DAergic neurons; experiment: Survival of iPSc-derived DAergic neurons exposed to MPP+; type: cell-based; details: within 24 hours, compared to vehicle
Procedure: To ascertain the translational therapeutic potential of compound 3, we tested whether human midbrain-specific iPSc-derived DAergic neurons, as indicated by positive staining and qPCR for the neuronal markers MAP2, TH, FoxA2, Lmx1 and En1, can be protected from MPP+ toxicity. Compound 3 was able to double the number of surviving neurons after MPP+ exposure within 24 hours, compared to vehicle (FIGS. 72J-72L). The surviving control neurons had fewer and retreating projections, indicating compromised function (FIG. 72K) while the neurons that had received compound 3 had retained a complex network of projections and contacts (FIG. 72L). In addition, we tested compound 3 in iPSc-derived DAergic neurons from a PD patient carrying the LRRK2-G2019S mutation.

[6] = tested on: ASYN transgenic mice; experiment: Striatal dopamine levels in ASYN transgenic mice by HPLC; type: in vivo, mouse; details: single IP 10 mg/kg, vs vehicle
Procedure: Given the role of Nurr1:RXRα activation in the transcriptional regulation of DA biosynthesis genes, we tested whether compound 3 could increase DA levels in wt and ASYN transgenic mice (Tofaris et al. J. Neurosci. 26:3942-3950, 2006), which display reduced striatal DA levels after reaching adulthood. […] Aiming to model PD based on human genetic data, we also tested whether compound 3 could increase DA levels in ASYN transgenic mice. A single IP injection of compound 3 (10 mg/kg) was able increase striatal DA (t test p=0.01069) and DA metabolite levels in ASYN transgenics as well (FIG. 75C) in comparison to mice receiving vehicle.

[7] = tested on: TH; experiment: Expression of DA biosynthesis genes in SHSY-5Y by qPCR; type: cell-based, human; details: 12.5 μM, vs vehicle
Description: (§3) FIGS. 72A-72R show the ability of compound 3 to induce the expression of genes involved in dopamine biosynthesis as well as the neuroprotective effects of compound 3 in cell lines and patient iPCs-derived dopaminergic neurons. […] FIGS. 72F, 72G, 72H, and 72I show representative confocal microscopy images of the compound 3-treated primary rat cortical neurons. […] FIG. 72M-72R show the effects of compound 3 on PD patient iPS cell-derived dopaminergic neurons with the LRRK2-G2019S mutation or corrected mutation (GC). Compound 3 treatment rescues neurite length (M, expressed in […]), number (N) and branching (O) phenotypes. Representative images show staining with TuJ, TH and DAPI (FIGS. 72P, 72Q, and 72R).
(§4) Nurr1 regulates the transcription of DA biosynthesis genes (Kim et al. J. Neurochem. 85:622-634, 2003 and Gil et al. J Neurochem 101:142-150, 2007); however, whether this process is mediated by Nurr1:RXRα heterodimers is unknown.

[8] = tested on: GCH1; experiment: as above; type: cell-based, human; details: 12.5 μM, vs vehicle
Description: as §3, §4

[9] = tested on: aromatic L-amino acid decarboxylase (AADC); experiment: as above; type: cell-based, human; details: 12.5 μM, vs vehicle
Description: as §3, §4

[10] = tested on: Nurr1 heterozygote 129/SV mice treated with MPTP; experiment: Neuroprotection against MPTP in Nurr1 heterozygote 129/SV mice; type: in vivo, mouse; details: Nurr1 heterozygote (Nurr1+/−) 129/SV mice
Procedure: (§5) 20 mg/kg MPTP injections were administered 4 times at the zero day of treatment, spaced 2 hours apart. 7 days after the MPTP injections there was approximately an 80% reduction in striatal projections and 40%-50% dopaminergic neuron death in the SN.

[11] = tested on: wild type 129/SV mice treated with MPTP; experiment: Neuroprotection against MPTP in wild type 129/SV mice; type: in vivo, mouse
Procedure: as §5

[12] = tested on: C57BL/6 mice injected unilaterally with 6-OHDA; experiment: Neuroprotection in the unilateral 6-OHDA mouse model; details: for reduction of apomorphine induced contralateral turns: 10 mg/kg IP every 12 hours

Chain of RXRαVP16 heterodimer chimeras with RXRγGAL4 (P19793 whole entry, looked up, change not shown, the tested form may be a part): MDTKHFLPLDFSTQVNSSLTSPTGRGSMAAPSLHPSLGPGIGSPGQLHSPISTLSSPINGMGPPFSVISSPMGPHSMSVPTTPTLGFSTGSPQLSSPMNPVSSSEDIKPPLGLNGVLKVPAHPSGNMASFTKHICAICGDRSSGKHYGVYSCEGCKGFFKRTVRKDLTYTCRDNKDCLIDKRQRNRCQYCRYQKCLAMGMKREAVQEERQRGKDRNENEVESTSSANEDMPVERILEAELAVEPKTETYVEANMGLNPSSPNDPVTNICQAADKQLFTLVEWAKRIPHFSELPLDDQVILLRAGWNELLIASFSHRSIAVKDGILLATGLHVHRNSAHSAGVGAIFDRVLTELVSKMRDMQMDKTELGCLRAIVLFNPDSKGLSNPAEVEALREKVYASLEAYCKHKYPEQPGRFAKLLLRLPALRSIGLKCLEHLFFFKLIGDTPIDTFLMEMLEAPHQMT
Chain of RXRαVP16 heterodimer chimeras with RXRγGAL4 (P48443 whole entry partner, looked up, the tested form may be a part): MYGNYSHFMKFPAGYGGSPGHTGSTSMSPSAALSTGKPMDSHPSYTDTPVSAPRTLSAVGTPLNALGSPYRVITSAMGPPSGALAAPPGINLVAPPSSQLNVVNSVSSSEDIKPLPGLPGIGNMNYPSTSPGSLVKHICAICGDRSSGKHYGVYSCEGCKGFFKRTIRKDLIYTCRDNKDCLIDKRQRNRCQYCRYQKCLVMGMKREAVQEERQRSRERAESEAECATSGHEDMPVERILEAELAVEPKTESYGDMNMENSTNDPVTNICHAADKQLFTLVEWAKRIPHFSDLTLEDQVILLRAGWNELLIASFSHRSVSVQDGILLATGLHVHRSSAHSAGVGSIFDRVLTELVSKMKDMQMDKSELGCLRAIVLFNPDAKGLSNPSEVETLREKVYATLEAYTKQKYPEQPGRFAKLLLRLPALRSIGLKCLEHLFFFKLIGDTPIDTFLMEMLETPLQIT
Chain of Nurr1GAL4:RXRαVP16 heterodimer chimeras (P19793 whole entry, looked up, change not shown, the tested form may be a part): as the sequence (P19793 whole entry, looked up, change not shown, the tested form may be a part) above
Chain of Nurr1GAL4:RXRαVP16 heterodimer chimeras (P43354 whole entry partner, looked up, the tested form may be a part): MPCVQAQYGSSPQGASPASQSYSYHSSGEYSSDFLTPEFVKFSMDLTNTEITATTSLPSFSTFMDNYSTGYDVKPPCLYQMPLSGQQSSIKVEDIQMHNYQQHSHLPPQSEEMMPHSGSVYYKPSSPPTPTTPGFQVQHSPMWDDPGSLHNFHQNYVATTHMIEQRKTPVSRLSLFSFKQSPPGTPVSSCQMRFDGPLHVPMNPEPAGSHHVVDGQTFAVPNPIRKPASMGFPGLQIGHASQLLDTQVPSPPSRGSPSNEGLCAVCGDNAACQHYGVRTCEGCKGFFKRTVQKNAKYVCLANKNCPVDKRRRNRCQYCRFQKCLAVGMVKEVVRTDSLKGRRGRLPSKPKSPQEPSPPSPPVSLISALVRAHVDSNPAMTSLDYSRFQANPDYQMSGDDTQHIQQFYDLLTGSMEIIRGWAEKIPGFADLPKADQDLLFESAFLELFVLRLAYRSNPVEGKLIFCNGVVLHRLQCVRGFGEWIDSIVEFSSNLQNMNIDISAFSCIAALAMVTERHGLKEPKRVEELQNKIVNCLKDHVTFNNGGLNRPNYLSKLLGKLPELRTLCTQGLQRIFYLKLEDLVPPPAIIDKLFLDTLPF
Chain of RXRαGAL4 homodimer chimeras (P19793 whole entry, looked up, change not shown, the tested form may be a part): as the sequence (P19793 whole entry, looked up, change not shown, the tested form may be a part) above
Chain of RXRαGAL4 homodimer chimeras (P19793 whole entry, looked up, change not shown, the tested form may be a part): as above
Chain of RXRαVP16 heterodimer chimeras with PPARγGAL4 (P19793 whole entry, looked up, change not shown, the tested form may be a part): as above
Chain of RXRαVP16 heterodimer chimeras with PPARγGAL4 (P37231 whole entry partner, looked up, the tested form may be a part): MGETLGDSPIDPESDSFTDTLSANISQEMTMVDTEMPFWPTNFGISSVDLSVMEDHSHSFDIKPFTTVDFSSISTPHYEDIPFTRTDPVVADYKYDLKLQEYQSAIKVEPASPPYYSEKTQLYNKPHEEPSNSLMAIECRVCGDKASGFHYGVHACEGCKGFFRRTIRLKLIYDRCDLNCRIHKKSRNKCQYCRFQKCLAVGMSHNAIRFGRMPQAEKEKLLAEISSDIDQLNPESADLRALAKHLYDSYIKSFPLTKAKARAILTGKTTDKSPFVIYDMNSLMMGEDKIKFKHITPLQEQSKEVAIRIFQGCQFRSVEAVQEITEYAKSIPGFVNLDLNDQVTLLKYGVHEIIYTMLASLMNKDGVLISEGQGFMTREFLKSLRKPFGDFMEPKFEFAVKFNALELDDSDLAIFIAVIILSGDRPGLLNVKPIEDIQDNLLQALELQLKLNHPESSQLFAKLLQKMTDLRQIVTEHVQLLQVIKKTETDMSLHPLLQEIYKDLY

With C=CCc1c(N(C)c2ccc(C(=O)O)cc2)nc(-c2ccccc2)nc1C(F)(F)F [Example 3, 4-((5-allyl-2-phenyl-6-(trifluoromethyl)pyrimidin-4-yl)(methyl)amino)benzoic acid] the “activation of Nurr1GAL4:RXRαVP16 heterodimer chimeras” value [1] was “strongly activated”, the “activation of RXRαGAL4 homodimer chimeras” value [2] was “failed to activate” and the “activation of RXRγGAL4:RXRαVP16 chimeras” value [3] was “failed to activate”. The “activation of PPARγGAL4:RXRαVP16 chimeras” value [4] was “failed to activate”, the “number of surviving neurons after MPP+ exposure” value [5] was “double” and the “striatal DA and DA metabolite levels” value [6] was “increase”. The “increase of TH expression” value [7] was “about 90%”, the “increase of GCH1 expression” value [8] was “about 42%” and the “increase of AADC expression” value [9] was “about 70%”. The “neuroprotection against MPTP toxicity (surviving neuronal bodies)” value [10] was “did not lead to a statistically significant increase; also recorded: abolished”, the “neuroprotection against MPTP toxicity” value ([11]; 129sv wt mice) was “equally effective” and the “increase in number of surviving neuronal bodies” value ([11]; wild type 129/SV, MPTP, IP 10 mg/kg every 12 hours for 8 days) was 33.5%. The “motor coordination (rotarod test)” value ([12]; 6-OHDA, 10 mg/kg IP every 12 hours for 14 days) was “almost entirely restored to control levels”, the “reduction of apomorphine induced contralateral turns” value ([12]; 6-OHDA, vs vehicle, listed as Compound 3) was “approximately 8 fold” and the “reduction of apomorphine induced contralateral turns” value ([12]; 6-OHDA, vs vehicle, listed as compound 3) was “over 8 fold”. The “increase in number of surviving neuronal bodies (SNpc)” value ([12]; 6-OHDA, IP 10 mg/kg every 12 hours for 15 days) was 256.55%, the “preservation of striatal TH(+) DAergic projections (innervation)” value ([12]; 6-OHDA, vs vehicle) was 10 fold and the Rotarod test improvement ([12]; unilateral 6-OHDA, compound 3 vs vehicle (n=5)) was 12 fold.
